Test results published in US8287923B2, “Compositions and methods for treating immune disorders” (priority 2005, dated 2012).

System: normal human epidermal keratinocytes (NHEK)
Assay: Affymetrix gene array analysis, autoantigen gene expression
Assay type: cell-based
Settings: 100 μM
Protocol: The gene array experiment was performed at the Core Facility of Genomics of the Medical College of Georgia, according to the instructions of the manufacturer (Affymetrix, Santa Clara, Calif.). Briefly, NHEK and OSC2 cells treated with 100 μM EGCG for different time period were extracted for total RNA, the RNA was processed for probes and hybridized with a cDNA microarray (HuG133A, Affymetrix) which represents 22,283 human series. DNA chips were read with a Hewlett-Packard GeneArray Scanner at a resolution of […] and were analyzed with the GeneSpring software (Silicon Genetics, Redwood City, Calif.). Details of this analysis will be published elsewhere (Hsu et al., manuscript in preparation).
Gene assays provide a valuable tool for studying the broad response of cells to agents, and we have used this approach to compare the differential effects of GTPP on gene expression in NHEK and human oral squamous carcinoma cells (Hsu, et al, manuscript in preparation). […] See also Hsu, S. et al. (2005) JPET 315:805-811, which is incorporated by reference in its entirety.

In the case of `O=C(O[C@@H]1Cc2c(O)cc(O)cc2O[C@@H]1c1cc(O)c(O)c(O)c1)c1cc(O)c(O)c(O)c1` [EGCG, (−)-epigallocatechin-3-gallate], the “60 kDa, SS-A/Ro (212852_s_at) expression, normalized” value (6 h) is reported as 0.85, the “Ku autoantigen, 80 kDa (208642_s_at) expression, normalized” value (6 h) is reported as 0.96 and the “Ku autoantigen, 80 kDa (208643_s_at) expression, normalized” value (6 h) is reported as 0.98. For the same compound, the “Nuclear antigen SP100 (202863_at) expression, normalized” value (6 h) was 0.59, the “Nuclear antigen SP100 (202864_s_at) expression, normalized” value (6 h) was 0.64 and the “Nuclear antigen SP10075 kDa (213226_at) expression, normalized” value (6 h) was 0.43. For the same compound, the “RNA polymerase 1 (202692_s-at) expression, normalized” value (6 h) was 0.50, the “SS-B/La (201138_s_at) expression, normalized” value (6 h) was 0.57 and the “SS-B/La (201139_s_at) expression, normalized” value (6 h) was 0.43. For the same compound, the “centromere protein C1 (20473_at) expression, normalized” value (6 h) was 0.87, the “coilin (203653_s_at) expression, normalized” value (6 h) was 0.60 and the “coilin (203654_s_at) expression, normalized” value (6 h) was 0.62. For the same compound, the “fodrin-α (208611_s_at) expression, normalized” value (6 h) was 0.56, the “fodrin-α (215235_s_at) expression, normalized” value (6 h) was 0.75 and the “golgin-67 (208797_s_at) expression, normalized” value (6 h) was 0.92. The “golgin-67 (208798_x_at) expression, normalized” value (6 h) was 0.32, the “golgin-67 (210425_x_at) expression, normalized” value (6 h) was 0.19 and the “golgin-67 (213650_at) expression, normalized” value (6 h) was 0.69. The “scleroderma autoantigen 1, 75 kDa (213226_at) expression, normalized” value (6 h) was 0.43, the “spectrin-β non-erythrocyctic 1 (212071_s_at) expression, normalized” value (6 h) was 0.95 and the “thyroid autoantigen 70 kDa (Ku antigen) (200792_at) expression, normalized” value (6 h) was 1.13. The “ADPRT [poly(ADP)-ribose polymerase] expression” value (6 h, vs time zero) was 0.992 fold, the ANAP12 expression (6 h, vs time zero) was 0.4 fold and the ANXA11 expression (6 h, vs time zero) was 2.141 fold. The CALR expression (6 h, vs time zero) was 1.482 fold, the CBARA1 expression (6 h, vs time zero) was 0.498 fold and the CENPA expression (6 h, vs time zero) was 0.672 fold. It also gave a CENPB expression (6 h, vs time zero) of 0.498 fold, a CENPC1 expression (6 h, vs time zero) of 0.869 fold and a CHD4 expression (6 h, vs time zero) of 0.916 fold. For the same compound, the COL17A1 expression (6 h, vs time zero) was 1.043 fold, the CTDSP1 expression (6 h, vs time zero) was 1.25 fold and the CTDSP2 expression (6 h, vs time zero) was 0.92 fold. The CTDSPL expression (6 h, vs time zero) was 2.42 fold, the DLAT expression (6 h, vs time zero) was 1.031 fold and the EPPK1 expression (6 h, vs time zero) was 1.318 fold. For the same compound, the FBL expression (6 h, vs time zero) was 1.09 fold, the FLJ31657 expression (6 h, vs time zero) was 0.435 fold and the “FLNB (Filamin B, β) expression” value (6 h, vs time zero) was 0.751 fold. The “FLNB (Filamin B, γ) expression” value (6 h, vs time zero) was 0.875 fold, the “G22P1 (Thyroid autoantigen, 70 kDa, Ku antigen) expression” value (6 h, vs time zero) was 1.127 fold and the GMEB2 expression (6 h, vs time zero) was 0.626 fold. For the same compound, the GOLGA1 expression (6 h, vs time zero) was 0.68 fold, the GOLGA2 expression (6 h, vs time zero) was 0.769 fold and the GOLGA3 expression (6 h, vs time zero) was 0.547 fold. For the same compound, the GOLGA4 expression (6 h, vs time zero) was 0.353 fold, the GOLGA5 expression (6 h, vs time zero) was 0.731 fold and the GOLGB1 expression (6 h, vs time zero) was 0.56 fold. For the same compound, the HARS expression (6 h, vs time zero) was 0.88 fold, the HARSL expression (6 h, vs time zero) was 0.88 fold and the HSA6591 expression (6 h, vs time zero) was 0.532 fold. The HUMAUANTIG expression (6 h, vs time zero) was 0.444 fold, the IMP-2 expression (6 h, vs time zero) was 0.635 fold and the LAD1 expression (6 h, vs time zero) was 0.954 fold. For the same compound, the “LMO4 expression (repeat 1)” value (6 h, vs time zero) was 0.708 fold, the “LMO4 expression (repeat 2)” value (6 h, vs time zero) was 1.133 fold and the “MGC5560 expression (repeat 1)” value (6 h, vs time zero) was 1.646 fold. The “MGC5560 expression (repeat 2)” value (6 h, vs time zero) was 2.605 fold, the “NS (Nucleostemin) expression” value (6 h, vs time zero) was 0.519 fold and the PDHB expression (6 h, vs time zero) was 0.745 fold. The PDX1 expression (6 h, vs time zero) was 0.646 fold, the “PMSCL1, 75 kDa expression” value (6 h, vs time zero) was 0.431 fold and the PMSCL2 expression (6 h, vs time zero) was 1.058 fold. The POLR1B expression (6 h, vs time zero) was 0.98 fold, the POLR1D expression (6 h, vs time zero) was 1.04 fold and the “POLR2A expression (repeat 1)” value (6 h, vs time zero) was 1.80 fold. For the same compound, the “POLR2A expression (repeat 2)” value (6 h, vs time zero) was 0.44 fold, the POLR2B expression (6 h, vs time zero) was 0.59 fold and the POLR2C expression (6 h, vs time zero) was 1.53 fold. It also gave a POLR2D expression (6 h, vs time zero) of 1.04 fold, a POLR2E expression (6 h, vs time zero) of 0.87 fold and a POLR2F expression (6 h, vs time zero) of 1.17 fold. The POLR2G expression (6 h, vs time zero) was 0.74 fold, the POLR2H expression (6 h, vs time zero) was 1.02 fold and the POLR3C expression (6 h, vs time zero) was 0.45 fold. The POLR3G expression (6 h, vs time zero) was 1.05 fold, the PSME3 expression (6 h, vs time zero) was 1.128 fold and the RALY expression (6 h, vs time zero) was 1.496 fold. The SART1 expression (6 h, vs time zero) was 1.462 fold, the SLC25A16 expression (6 h, vs time zero) was 1.099 fold and the SNRP70 expression (6 h, vs time zero) was 2.28 fold. The SNRPA expression (6 h, vs time zero) was 1.35 fold, the SNRPB2 expression (6 h, vs time zero) was 0.56 fold and the “SNRPB expression (repeat 1)” value (6 h, vs time zero) was 0.76 fold. For the same compound, the “SNRPB expression (repeat 2)” value (6 h, vs time zero) was 0.67 fold, the SNRPC expression (6 h, vs time zero) was 1.28 fold and the “SNRPD1 expression (repeat 1)” value (6 h, vs time zero) was 0.658 fold. The “SNRPD1 expression (repeat 2)” value (6 h, vs time zero) was 0.612 fold, the SOX13 expression (6 h, vs time zero) was 1.24 fold and the “SP100 expression (repeat 1)” value (6 h, vs time zero) was 0.59 fold. For the same compound, the “SP100 expression (repeat 2)” value (6 h, vs time zero) was 0.686 fold, the “SP110 expression (repeat 1)” value (6 h, vs time zero) was 1.205 fold and the “SP110 expression (repeat 2)” value (6 h, vs time zero) was 0.997 fold. For the same compound, the “SP110 expression (repeat 3)” value (6 h, vs time zero) was 0.7 fold, the “SPTAN1 (α-fodrin) expression (repeat 1)” value (6 h, vs time zero) was 0.56 fold and the “SPTAN1 (α-fodrin) expression (repeat 2)” value (6 h, vs time zero) was 0.75 fold. For the same compound, the SPTBN expression (6 h, vs time zero) was 0.95 fold, the “SSA2 (autoantigen SS-A/Ro) expression (repeat 2)” value (6 h, vs time zero) was 0.687 fold and the “SSA2 expression (repeat 1)” value (6 h, vs time zero) was 0.739 fold. The “SSA2 expression (repeat 3)” value (6 h, vs time zero) was 0.571 fold, the “SSA2 expression (repeat 4)” value (6 h, vs time zero) was 0.85 fold and the “SSB (autoantigen La) expression (repeat 1)” value (6 h, vs time zero) was 0.57 fold. For the same compound, the “SSB (autoantigen La) expression (repeat 2)” value (6 h, vs time zero) was 0.427 fold, the SSNA1 expression (6 h, vs time zero) was 1.608 fold and the SSSCA1 expression (6 h, vs time zero) was 1.005 fold. The STRN3 expression (6 h, vs time zero) was 0.528 fold, the “TOP1 expression (repeat 1)” value (6 h, vs time zero) was 0.84 fold and the “TOP1 expression (repeat 2)” value (6 h, vs time zero) was 0.33 fold. The UBTF expression (6 h, vs time zero) was 0.501 fold, the “XRCC5 (Ku autoantigen, 80 kDa) expression (repeat 1)” value (6 h, vs time zero) was 0.977 fold and the “XRCC5 (Ku autoantigen, 80 kDa) expression (repeat 2)” value (6 h, vs time zero) was 0.958 fold. For the same compound, the dJ963E22.1 expression (6 h, vs time zero) was 0.723 fold, the α-NAC expression (6 h, vs time zero) was 0.0443 fold and the “60 kDa, SS-A/Ro (210438_x_at) expression, normalized” value (24 h) was 0.88. For the same compound, the “60 kDa, SS-A/Ro (212852_s_at) expression, normalized” value (24 h) was 0.94.
